# Results from patent US12605374B2, “Methods for drug screening and compositions useful for the inhibition of cell proliferation and/or cell survival” (The Brigham and Women's Hospital, Inc., priority 2019, dated 2026).
# “Also recorded” adds a separate entry of the source.
# Key:
# embryonic zebrafish = assay: Blinded re-screen of top 10 prioritized ChemBridge compounds for developmental phenotypes in embryonic zebrafish; type: in vivo; conditions: for Phenotype Observed: embryonic zebrafish, 10 uM introduced at 5 hpf, scored at 24 and 48 hpf, blinded, in duplicate
# Method: Male and female wild-type (AB) fish were housed and embryos bred for screening using standard protocols. […] 10 mM compound stocks were diluted to 2 mM using DMSO, and 1 μL of each diluted compound solution was introduced into individual wells at 5 hours post fertilization (hpf) using a manual multichannel pipettor (10 uM final concentration). The first and last column of each plate received only DMSO, serving as negative control wells.
# Embryos were screened for a series of developmental phenotypes at both 24 and 48 hpf using standard light microscopy. […] Only those wells where at least two of the three embryos were dead or delayed were annotated as a hit for 24 hour death or delay/arrest, respectively.
# Resulting scores for each phenotype were used to rank the over 900,000 compounds. Enrichment for compounds with high (>0.95) similarity to known therapeutics (defined using Tanimoto Coefficient of molecular fingerprints) was calculated for each of the 6 ranked lists using gene set enrichment analysis^69. The top 10 highest-ranking compounds from each of the 6 lists were screened as described above, blinded and in duplicate.
# zebrafish embryos = assay: Rescue of developmental delay/arrest phenotype by phospholipase products; type: in vivo; conditions: for rescue of the developmental delay/arrest phenotype of DA5: zebrafish embryos treated with DA5
# Text: FIG. 15 (A)-(B): Effect of timing and injection on DA5 rescue. Rescue of the DA5 phenotype was compared using introduction of phosphatidic acid (PAC) in-well, versus injected into the embryo at the 1-cell developmental stage (A; DA5 introduced at 5 hpf).
# Given the known role of anoxia in cancer cell proliferation, we investigated the potential of the DA compounds to inhibit cancer cell growth in cell culture. We found a significant reduction in the proliferation of immortalized cells upon introduction of all DA compounds (FIG. 16).
compound,measurement,setting,value
COc1ccccc1Nc1nc(-c2ccncc2)cs1 [ChemBridge ID 5745969],Hit (predicted phenotype observed),embryonic zebrafish; Prediction: Dead,No
same,Phenotype Observed,embryonic zebrafish,Multiple severe phenotypes
Br.COc1ccccc1Nc1nc(-c2sc(C)nc2C)cs1 [ChemBridge ID 5931065],Hit (predicted phenotype observed),embryonic zebrafish; Prediction: Dead,Yes
same,Phenotype Observed,embryonic zebrafish,Dead (48 h)
CC(NCc1ccccc1O)C12CC3CC(CC(C3)C1)C2 (stereo not drawn) [ChemBridge ID 6108849],Hit (predicted phenotype observed),embryonic zebrafish; Prediction: Pigmentation,Yes
same,Hit (predicted phenotype observed),embryonic zebrafish; Prediction: Pigmentation Only,Yes
same,Phenotype Observed,embryonic zebrafish,"No pigmentation, dying"
O=C(Nc1ccccc1Cl)N1CCN(c2ccccc2F)CC1 [ChemBridge ID 7008803],Hit (predicted phenotype observed),embryonic zebrafish; Prediction: Cranial Edema,No
same,Phenotype Observed,embryonic zebrafish,slight discoloration
COCC1CCN(C(=O)c2cc(COc3ccc4ncccc4c3)on2)CC1 [ChemBridge ID 13197878],Hit (predicted phenotype observed),embryonic zebrafish; Prediction: Delay/Arrest,Yes
same,Phenotype Observed,embryonic zebrafish,"Bud stage at 24 h, dead at 48 h"
CCOC(=O)C1(CCc2ccccc2)CCCN(Cc2nccn2CC)C1 (stereo not drawn) [ChemBridge ID 13300080],Hit (predicted phenotype observed),embryonic zebrafish; Prediction: Pigmentation,Yes
same,Hit (predicted phenotype observed),embryonic zebrafish; Prediction: Pigmentation Only,Yes
same,Phenotype Observed,embryonic zebrafish,"No pigmentation, dying; also recorded: No pigmentation, slow heart beat"
CN(CC1CCN(CCc2ccc(Cl)cc2)CC1)C(=O)c1ccccc1-n1cccn1 [ChemBridge ID 18069546],Hit (predicted phenotype observed),embryonic zebrafish; Prediction: Cardiac,Yes
same,Phenotype Observed,embryonic zebrafish,"Pericardial edema, no heart beat"
COC(=O)c1ccc(-c2noc(CN(Cc3ccncc3)CC3CCCO3)n2)cc1 (stereo not drawn) [ChemBridge ID 18809966],Hit (predicted phenotype observed),embryonic zebrafish; Prediction: Body Axis,Yes
same,Phenotype Observed,embryonic zebrafish,Small body (appear dorsalized)
O=C(c1cc(COc2ccc3ncccc3c2)on1)N1C[C@@H]2C[C@H]3C[C@@H](C2)C[C@@H]1C3 [ChemBridge ID 19759648],Hit (predicted phenotype observed),embryonic zebrafish; Prediction: Delay/Arrest,Yes
same,Phenotype Observed,embryonic zebrafish,"Bud stage at 24 h, dead at 48 h"
COC(=O)c1ccc(-c2nc(CN3CCCCC3c3cccc(OC)c3)c(C)o2)cc1 (stereo not drawn) [ChemBridge ID 20494296],Hit (predicted phenotype observed),embryonic zebrafish; Prediction: Body Axis,Yes
same,Phenotype Observed,embryonic zebrafish,"Short, no heads"
O=C(c1cc(COc2ccc3ncccc3c2)on1)N1CCCC(OCc2ccccn2)C1 (stereo not drawn) [ChemBridge ID 21652166],Hit (predicted phenotype observed),embryonic zebrafish; Prediction: Delay/Arrest,Yes
same,Phenotype Observed,embryonic zebrafish,5-10 somite stage at 48 h
COC(=O)c1ccc(-c2nc(CN3CCCCC3c3nc4cc(F)ccc4[nH]3)c(C)o2)cc1 (stereo not drawn) [ChemBridge ID 22685803],Hit (predicted phenotype observed),embryonic zebrafish; Prediction: Body Axis,Yes
same,Phenotype Observed,embryonic zebrafish,"Most dead, remaining have small bodies"
CCOC(=O)C1(CCOc2ccccc2)CCN(Cc2cc(OC)cc(OC)c2)CC1 [ChemBridge ID 23490385],Hit (predicted phenotype observed),embryonic zebrafish; Prediction: Cardiac,Yes
same,Hit (predicted phenotype observed),embryonic zebrafish; Prediction: Cranial Edema,No
same,Phenotype Observed,embryonic zebrafish,"Pericardial edema, no heart beat"
CSc1ccc(-c2nc(CN3CCCCC3c3nccn3C)c(C)o2)cc1 (stereo not drawn) [ChemBridge ID 23702187],Hit (predicted phenotype observed),embryonic zebrafish; Prediction: Pigmentation,Yes
same,Phenotype Observed,embryonic zebrafish,"No pigmentation, cranial edema, slow heart beat"
CN(CC1CCN(CCc2ccc(F)cc2)CC1)C(=O)c1ccsc1 [ChemBridge ID 26410496],Hit (predicted phenotype observed),embryonic zebrafish; Prediction: Cardiac,Yes
same,Phenotype Observed,embryonic zebrafish,"Pericardial edema, no heart beat"
COC(=O)c1ccc(-c2nc(CN(C)C(C)c3nc(C)cs3)c(C)o2)cc1 (stereo not drawn) [ChemBridge ID 34105851],Hit (predicted phenotype observed),embryonic zebrafish; Prediction: Body Axis,Yes
same,Phenotype Observed,embryonic zebrafish,Small body (no head)
OCCC1CN(Cc2ccc(F)cc2F)CCN1CCCc1ccccc1 (stereo not drawn) [ChemBridge ID 35983174],Hit (predicted phenotype observed),embryonic zebrafish; Prediction: Cardiac,Yes
same,Hit (predicted phenotype observed),embryonic zebrafish; Prediction: Cardiac Only,Yes
same,Phenotype Observed,embryonic zebrafish,"Pericardial edema, no heart beat"
CN(CC1CCN(CCc2ccc(Cl)cc2)CC1)C(=O)C1=CCCCC1 [ChemBridge ID 37690524],Hit (predicted phenotype observed),embryonic zebrafish; Prediction: Cardiac,Yes
same,Phenotype Observed,embryonic zebrafish,"Pericardial edema, no heart beat"
CCOC(=O)C1(Cc2cccc(OC)c2)CCCN(Cc2nccn2CC)C1 (stereo not drawn) [ChemBridge ID 38433186],Hit (predicted phenotype observed),embryonic zebrafish; Prediction: Pigmentation,Yes
same,Hit (predicted phenotype observed),embryonic zebrafish; Prediction: Pigmentation Only,Yes
same,Phenotype Observed,embryonic zebrafish,No pigmentation
CCOC(=O)C1(CCOc2ccccc2)CCN(Cc2ccc(OC)cc2)CC1 [ChemBridge ID 38617825],Hit (predicted phenotype observed),embryonic zebrafish; Prediction: Cardiac,No
same,Phenotype Observed,embryonic zebrafish,Dead (48 h)
CN(CC1CCN(CCc2ccc(Cl)cc2)CC1)C(=O)c1cccc(N(C)C)c1 [ChemBridge ID 39911836],Hit (predicted phenotype observed),embryonic zebrafish; Prediction: Cardiac,Yes
same,Phenotype Observed,embryonic zebrafish,"Pericardial edema, no heart beat"
C[C@@H]1CN(C(=O)c2cc(COc3ccc4ncccc4c3)on2)C[C@H](C)O1 [ChemBridge ID 44889923],Hit (predicted phenotype observed),embryonic zebrafish; Prediction: Delay/Arrest,Yes
same,Phenotype Observed,embryonic zebrafish,Look 24 h at 48 h
O=C(c1cc(COc2ccc3ncccc3c2)on1)N1CCC(N2CCSCC2)CC1 [ChemBridge ID 45187255],Hit (predicted phenotype observed),embryonic zebrafish; Prediction: Delay/Arrest,Yes
same,Phenotype Observed,embryonic zebrafish,"Bud stage at 24 h, 5-18 somites at 48 h"
O=C(c1cc(COc2ccc3ncccc3c2)on1)N1C[C@H]2CCC[C@H]1C2 [ChemBridge ID 54305680],Hit (predicted phenotype observed),embryonic zebrafish; Prediction: Delay/Arrest,Yes
same,Phenotype Observed,embryonic zebrafish,"Bud stage at 24 h, dead at 48 h"
COC(=O)c1ccc(-c2noc(CN(CCO)Cc3cccs3)n2)cc1 [ChemBridge ID 56638922],Hit (predicted phenotype observed),embryonic zebrafish; Prediction: Body Axis,Yes
same,Phenotype Observed,embryonic zebrafish,"Small heads, short bodies"
CN(CC1CCN(CCc2ccc(Cl)cc2)CC1)C(=O)c1ccsc1 [ChemBridge ID 59314184],Hit (predicted phenotype observed),embryonic zebrafish; Prediction: Cardiac,Yes
same,Phenotype Observed,embryonic zebrafish,"Pericardial edema, no heart beat"
CCOC(=O)C1(C/C=C/c2ccccc2)CCCN(Cc2nccn2CC)C1 (stereo not drawn) [ChemBridge ID 69904708],Hit (predicted phenotype observed),embryonic zebrafish; Prediction: Pigmentation,Yes
same,Hit (predicted phenotype observed),embryonic zebrafish; Prediction: Pigmentation Only,Yes
same,Phenotype Observed,embryonic zebrafish,"No pigmentation, cranial edema, slow heart beat"
COC(=O)c1ccc(-c2noc(CN(CCO)Cc3ccccc3)n2)cc1 [ChemBridge ID 86606851],Hit (predicted phenotype observed),embryonic zebrafish; Prediction: Body Axis,Yes
same,Phenotype Observed,embryonic zebrafish,"Some dead, alive have no head, necrotic"
CCOC(=O)C1(CCOc2ccccc2)CCN(Cc2ccccc2OC)CC1 [ChemBridge ID 87194463],Hit (predicted phenotype observed),embryonic zebrafish; Prediction: Cardiac,No
same,Phenotype Observed,embryonic zebrafish,Dead (48 h)
Cc1oc(-c2cccc(C(F)(F)F)c2)nc1CN1CCCCC1c1nccn1C (stereo not drawn) [ChemBridge ID 91866361],Hit (predicted phenotype observed),embryonic zebrafish; Prediction: Pigmentation,Yes
same,Phenotype Observed,embryonic zebrafish,"No pigmentation, cranial edema, slow heart beat"
CCOC(=O)C1(Cc2ccccc2)CCCN(Cc2nccn2CC)C1 (stereo not drawn) [ChemBridge ID 98334673],Hit (predicted phenotype observed),embryonic zebrafish; Prediction: Pigmentation,Yes
same,Hit (predicted phenotype observed),embryonic zebrafish; Prediction: Pigmentation Only,Yes
same,Phenotype Observed,embryonic zebrafish,"No pigmentation, cranial edema"
"O=P(O)(O)O[C@@H]1[C@H](O)[C@H](O)[C@@H](OP(=O)(O)O)[C@H](OP(=O)(O)O)[C@H]1O [D-myo-Inositol-1,4,5-triphosphate]",rescue of the developmental delay/arrest phenotype of DA5,zebrafish embryos,did not observe rescue
Phosphatidic acid,rescue of the DA5 phenotype,"zebrafish embryos; DA5 introduced at 5 hpf, PAC in-well at 24 hpf, phenotypes surveyed at 36 hpf",rescue still observed
same,rescue of the DA5 phenotype,"zebrafish embryos; upon injection and introduction into embryonic medium, multiple time points after DA5",rescued
same,rescue of the developmental delay/arrest phenotype of DA5,zebrafish embryos,rescued
same,rescue of the developmental delay/arrest phenotype of DA5,zebrafish embryos; listed as phosphatidic acid,rescue
same,rescue of the phenotype of oligomycin A,zebrafish embryos; zebrafish embryos treated with oligomycin A,did not rescue
